These results are taken from ChEMBL document CHEMBL2401675, “Design, synthesis, and biological evaluation of novel dipeptide-type SARS-CoV 3CL protease inhibitors: structure-activity relationship study” (Eur J Med Chem, 2013).

The target of experiment [1] is Replicase polyprotein 1a (Severe acute respiratory syndrome-related coronavirus, UniProt P0C6U8). In words: Inhibition of SARS coronavirus Chymotrypsin-like protease using H-Thr-Ser-Ala-Val-Leu-Gln-Ser-Gly-Phe-Arg-Lys-NH2 as substrate by fluorescence assay.
Experiment [2] addresses Replicase polyprotein 1a (Severe acute respiratory syndrome-related coronavirus) (UniProt P0C6U8). As to the kind of experiment: Ratio of Kinact to Ki for SARS coronavirus Chymotrypsin-like protease.

As a reminder, the Ki is the dissociation constant of the complex between target and ligand, obtained from inhibition or displacement.

On to `COc1ccccc1-c1cnc(C(=O)[C@H](C[C@@H]2CCNC2=O)NC(=O)[C@H](CC(C)C)NC(=O)OCc2ccccc2)s1`, for which the Ki in experiment [1] was 2500 nM.
In turn, `CC(C)C[C@H](NC(=O)/C=C/c1ccccc1)C(=O)N[C@@H](C[C@@H]1CCNC1=O)C(=O)c1nc2ccccc2s1` yielded a Ki in experiment [1] of 690 nM.
With `CC(C)C[C@H](NC(=O)OC(C)(C)C)C(=O)N[C@@H](C[C@@H]1CCNC1=O)C(=O)c1nc2ccccc2s1`, affinity in experiment [1] was put at a Ki of 23000 nM.
In experiment [1], `COc1ccc(-c2cnc(C(=O)[C@H](C[C@@H]3CCNC3=O)NC(=O)[C@H](CC(C)C)NC(=O)OCc3ccccc3)s2)cc1` had a Ki of 52000 nM.
Still for that read-out and setting: the figure for `CC(C)C[C@H](NC(=O)COc1ccc(O)cc1)C(=O)N[C@@H](C[C@@H]1CCNC1=O)C(=O)c1nc2ccccc2s1` is 8400 nM; for `COc1ccc(NCC(=O)N[C@@H](CC(C)C)C(=O)N[C@@H](C[C@@H]2CCNC2=O)C(=O)c2nc3ccccc3s2)cc1` it is 3200 nM.
For the compound `CC(C)C[C@H](NC(=O)CCc1cccnc1)C(=O)N[C@@H](C[C@@H]1CCNC1=O)C(=O)c1nc2ccccc2s1`, the affinity in experiment [1], expressed as Ki, was 7400 nM.
The same measure, in the same setting: the figure for `CC(C)C[C@H](NC(=O)Cc1ccccc1)C(=O)N[C@@H](C[C@@H]1CCNC1=O)C(=O)c1nc2ccccc2s1` is 3200 nM; for `CC(C)[C@H](NC(=O)OCc1ccccc1)C(=O)N[C@@H](C[C@@H]1CCNC1=O)C(=O)c1nc2ccccc2s1` it is 1710 nM.
Consider `CCOC(=O)C1OC1C(=O)N(CCC(N)=O)NC(=O)[C@@H](CC(=O)[C@H](CC(C)C)NC(=O)OCc1ccccc1)Cc1ccccc1` (some centres not stated), for which the Ratio in experiment [2] came to 1900 M⁻¹ s⁻¹.
In experiment [1], `CC(C)C[C@H](NC(=O)COc1cccc(N(C)C)c1)C(=O)N[C@@H](C[C@@H]1CCNC1=O)C(=O)c1nc2ccccc2s1` yielded a Ki of 840 nM.
The same measure, in the same setting: the figure for `COc1ccc(OCC(=O)N[C@@H](CC(C)C)C(=O)N[C@@H](C[C@@H]2CCNC2=O)C(=O)c2nc3ccccc3s2)cc1` is 1560 nM.
For the compound `CC[C@@H](C)[C@H](NC(=O)OCc1ccccc1)C(=O)N[C@@H](C[C@@H]1CCNC1=O)C(=O)c1nc2ccccc2s1`, the affinity in experiment [1], expressed as Ki, was 29000 nM.
Same read-out and setting: the figure for `O=C(N[C@@H](Cc1ccccc1)C(=O)N[C@@H](C[C@@H]1CCNC1=O)C(=O)c1nc2ccccc2s1)OCc1ccccc1` is 1200 nM.
The same measure, in the same setting: the figure for `CCCC[C@H](NC(=O)OCc1ccccc1)C(=O)N[C@@H](C[C@@H]1CCNC1=O)C(=O)c1nc2ccccc2s1` is 1600 nM; for `CC(C)CC(=O)N[C@@H](CC(C)C)C(=O)N[C@@H](C[C@@H]1CCNC1=O)C(=O)c1nc2ccccc2s1` it is 5900 nM; for `CSCC[C@H](NC(=O)OCc1ccccc1)C(=O)N[C@@H](C[C@@H]1CCNC1=O)C(=O)c1nc2ccccc2s1` it is 9400 nM.
The same measure, in the same setting: the figure for `Cc1ccc(-c2cnc(C(=O)[C@H](C[C@@H]3CCNC3=O)NC(=O)[C@H](CC(C)C)NC(=O)OCc3ccccc3)s2)cc1` is 37000 nM.
`CC(C)C[C@H](NC(=O)OCc1ccccc1)C(=O)N[C@@H](C[C@@H]1CCNC1=O)C(=O)c1ncc(-c2ccccc2)s1`: the Ki in experiment [1] is 660 nM.
Same read-out and setting: the figure for `COc1ccc(/C=C/C(=O)N[C@@H](CC(C)C)C(=O)N[C@@H](C[C@@H]2CCNC2=O)C(=O)c2nc3ccccc3s2)cc1` is 700 nM.
Still for that read-out and setting: the figure for `COc1ccc(/C=C/C(=O)N[C@@H](CC(C)C)C(=O)N[C@@H](C[C@@H]2CCNC2=O)C(=O)c2nc3ccccc3s2)cc1OC` is 1300 nM; for `COc1ccc(CCC(=O)N[C@@H](CC(C)C)C(=O)N[C@@H](C[C@@H]2CCNC2=O)C(=O)c2nc3ccccc3s2)cc1` it is 610 nM.
